# Data from patent US20020114804A1, “A METHOD OF TREATING INFECTION OF SUTURES AND PROSTHETIC DEVICES” (priority 1996, published 2002).
# Assays:
# Format in all cases: cell-based, human
# PMNs [1] = test: Exclusion of fluorescein-conjugated F(ab)2 anti-fibrin from zones of contact between PMNs and fibrin
# Text: Therefore, the exclusion of fluorescein-conjugated F(ab)2 anti-fibrin from zones of contact between LTB4- or IL-8-stimulated PMNs and fibrin was used as a measure of the interaction of these cells with fibrin-coated surfaces. About 50% of fibrin-adherent LTB4- or IL-8-stimulated PMNs formed adhesive zones that excluded this high molecular weight (100 kDa.) probe. As expected from studies with Rh-PEG (FIG. 8), >99% of fibrin-adherent TNF- or fMLP-stimulated PMNs excluded fluorescein-conjugated F(ab)2 anti-fibrin from their zones of contact with fibrin (data not shown).
# PMNs [2] = test: PMN migration through Matrigel or Matrigel/tenascin coated filters; settings: Matrigel alone
# Experimental: Polymorphonuclear leukocytes (PMN), were prepared as described (7) from heparinized human blood by sedimentation on Ficoll-Hypaque gradients. Contaminating red blood cells were removed by hypotonic lysis. The purity of PMN isolated by this method was >95% as determined by Wright-Giemsa staining.
# Cell culture inserts containing polyethylene terephthalate filters, 8-μm pore size (Becton-Dickinson), were overlaid with 0.1 ml of Matrigel (20-25 μg protein/filter) (Collaborative Research, Bedford, Mass.), and incubated at room temperature until they dried. These Matrigel-coated filters were washed with phosphate buffered saline containing 1.0 mM Mg^2+ and 1.0 mM Ca^2+ (PBS). 0.1 ml of a PBS solution (pH 7.2) containing the indicated amount of purified chick brain tenascin was added to some of the inserts. The filters were incubated at room temperature until they dried. These protein-coated filters were washed again with PBS and used within 12 h for cell migration studies. To prepare collagen I-coated inserts, filters were coated with rat tail collagen I (ICN Biochemicals, Costa, Mesa, Calif.) (400 μg/ml in PBS), by adding 0.1 ml of this solution to an insert and incubating the inserts at room temperature for 24 h. Some of these collagen I-coated filters were then incubated with tenascin as described above.
# PMN: 250 μl of PBS [supplemented with 5.5 mM glucose and 0.1% human serum albumin (HSA) (PBSG-HSA)] containing 1×10^6 PMNs was placed in the upper compartment of each insert. 250 μl of PBSG-HSA with or without chemoattractant, as indicated, was added to the bottom compartment. The inserts were incubated for about 4 h at 37° C. in a humidified atmosphere containing 95% air/5% CO2. […] The medium in the lower compartment was collected and its content of PMN determined using a Coulter Counter, as described in Example 1.
# PMNs [3] = test: PMN migration through filters coated with fibrinogen or fibronectin
# Experimental: (§1) Becton-Dickinson cell culture inserts (pore sizes 3 or 8 μm: Franklin Lakes, N.J.) were overlaid with the following proteins:
# Fibrinogen or fibronectin: 0.1 ml of PBS containing 100 μg/ml fibrinogen or fibronectin (New York Blood Center, New York, N.Y.), was placed into each insert (pore size 3 μm). Inserts were incubated at 37° C. for 60 min and washed with 250 μl of PBS. Filters coated with fibrinogen or fibronectin were diffusely fluorescent as visualized by epifluorescent microscopy when incubated with the corresponding antibody [fluorescein-labeled anti-fibrinogen, or anti-fibronectin monoclonal antibodies (Cappel, Malvern, Pa.)], while uncoated filters, or filters incubated with fluorescein-labeled antibody of the opposite specificity, were not.
# PMNs were prepared from fresh heparinized blood from healthy adult volunteers by sedimentation on Ficoll-Hypaque gradients. Contaminating red blood cells were removed by hypotonic lysis, as described (7). The purity of PMN isolated by this method is >95% as determined by Wright-Giemsa staining (7). […] The medium in each lower compartment was collected and its content of PMNs was determined using either a Coulter Counter or a hemocytometer. […] Counts are expressed as the average number of PMNs that migrated into the lower compartment. […]
# PMNs [4] = test: PMN migration through fibrin gels in Boyden-type chemotaxis chambers
# Experimental: as §1
# Fibrin gels: 1 Unit of thrombin (a gift from Dr. John Fenton, Albany Medical College, Albany, N.Y.), in 5 μl of PBS was added first to each insert. 0.1 ml phosphate buffered saline supplemented with Ca^2+ and Mg^2+ (PBS) containing 100 μg commercial grade fibrinogen (Calbiochem. Inc., San Diego, Calif.) or purified fibrinogen [a gift from Dr. Jeffery Weitz, (MacMaster University, Hamilton, On.)] was then placed into each 8.2 mm diameter insert on top of the thrombin. The mixture was incubated at 37° C. for 5 min to allow fibrin gel formation (determined by visual inspection). 1 Unit PPACK (Calbiochem Inc., San Diego, Calif.; 10^−5 M final concentration), in 100 μl medium was added to each insert to inhibit thrombin, and gels were washed with 250 μl PBS to remove inactivated thrombin. The fibrin gels formed were about 1 mm thick as measured under a dissecting microscope.
# PMNs were prepared from fresh heparinized blood from healthy adult volunteers by sedimentation on Ficoll-Hypaque gradients. Contaminating red blood cells were removed by hypotonic lysis, as described (7). The purity of PMN isolated by this method is >95% as determined by Wright-Giemsa staining (7). 10^6 PMNs in 250 μl of PBS supplemented with 5.5 mM glucose and 0.1% human serum albumin (PBSG-HSA), were placed in the upper compartment of each insert and incubated for 0-6 hrs at 37° C. in a humidified atmosphere containing 95% air/5% CO2. At the times and concentrations specified, chemoattractants/cytokines were added to the top or bottom compartment in 250 μl of PBSG-HSA. At the end of the incubation, the chambers were shaken to dislodge PMNs from the lower surface of the inserts. The medium in each lower compartment was collected and its content of PMNs was determined using either a Coulter Counter or a hemocytometer. Both methods gave similar results. Counts are expressed as the average number of PMNs that migrated into the lower compartment. Unless otherwise indicated, all values reported are the average of six data points from at least 3 independent experiments.
structure (smiles),measurement,setting,value
"CCCCC/C=C\C[C@@H](O)/C=C/C=C/C=C\[C@@H](O)CCCC(=O)O [LTB4, leukotriene B4]",Fibrin-adherent PMNs that excluded fluorescein-conjugated F(ab)2 anti-fibrin (100 kDa),PMNs [1],About 50%
same,PMNs that migrated through Matrigel-coated inserts,PMNs [2],~10%
same,PMN migration through filters with adsorbed fibrinogen or fibronectin,PMNs [3],promoted PMN migration
same,More PMNs migrated through fibrin in response to LTB4 than to IL-8,PMNs [4],25-50%
same,PMN migration through fibrin gels at supra-optimal concentrations,"PMNs [4]; IL-8 at >10^−7 M, supra-optimal LTB4",no indication of PMN desensitization
same,PMN migration through fibrin gels (in words),"PMNs [4]; chemoattractant in lower compartment, zymosan-activated human plasma 2-10%",migrated
same,PMN migration through fibrin gels without gradient,"PMNs [4]; chemoattractant in upper compartment, or equal concentrations in upper and lower compartments",Few PMNs migrated
same,Concentration giving maximal PMN migration through fibrin gels,"PMNs [4]; in bottom compartment, 6 hrs",20 nM
same,PMNs that migrated through fibrin gels within 2 hrs,"PMNs [4]; optimal concentration, 2 hrs",Ten
